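Method: 48-hour compound exposure of cells in 96-well plates, five concentrations, linear interpolation of endpoints. Here, GI50 denotes the concentration required for 50% inhibition of growth.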 The source made the active and inactive calls. No stated cut-off is given here; in the data, active = GI50 up to about 1.1 µM and inactive = higher.
Columns and labels:
Assay in all cases: NCI-60 cell line screen, 48 h
U-251 = tested on: U-251
Malme-3M = tested on: Malme-3M
SF-539 = tested on: SF-539
SNB-19 = tested on: SNB-19
MDA-MB-231 = tested on: MDA-MB-231
TK-10 = tested on: TK-10
M14 = tested on: M14
HL-60 = tested on: HL-60
PC-3 = tested on: PC-3
OVCAR-5 = tested on: OVCAR-5
SR = tested on: SR
NCI-H522 = tested on: NCI-H522
A549 = tested on: A549
Hs-578T = tested on: Hs-578T
HCT-116 = tested on: HCT-116
OVCAR-8 = tested on: OVCAR-8
CCRF-CEM = tested on: CCRF-CEM
SN12C = tested on: SN12C
UACC-62 = tested on: UACC-62
SW-620 = tested on: SW-620
HT-29 = tested on: HT-29
NCI-H460 = tested on: NCI-H460
SK-MEL-5 = tested on: SK-MEL-5
MDA-MB-435 = tested on: MDA-MB-435
OVCAR-3 = tested on: OVCAR-3
SNB-75 = tested on: SNB-75
KM12 = tested on: KM12
786-0 = tested on: 786-0
EKVX = tested on: EKVX
MOLT-4 = tested on: MOLT-4
HCC 2998 = tested on: HCC 2998
T47D = tested on: T47D
NCI/ADR-RES = tested on: NCI/ADR-RES
A498 = tested on: A498
ACHN = tested on: ACHN
DU-145 = tested on: DU-145
COLO 205 = tested on: COLO 205
BT-549 = tested on: BT-549
MCF7 = tested on: MCF7
SK-MEL-28 = tested on: SK-MEL-28
HOP-62 = tested on: HOP-62
SF-268 = tested on: SF-268
HOP-92 = tested on: HOP-92
MDA-N = tested on: MDA-N
CAKI-1 = tested on: CAKI-1
RPMI-8226 = tested on: RPMI-8226
NCI-H23 = tested on: NCI-H23
UO-31 = tested on: UO-31
SK-MEL-2 = tested on: SK-MEL-2
SF-295 = tested on: SF-295
UACC-257 = tested on: UACC-257
LOX IMVI = tested on: LOX IMVI
IGROV-1 = tested on: IGROV-1
HCT-15 = tested on: HCT-15
OVCAR-4 = tested on: OVCAR-4
RXF 393 = tested on: RXF 393
SK-OV-3 = tested on: SK-OV-3
K562 = tested on: K562
NCI-H226 = tested on: NCI-H226

Q: Which results are given for `C=CCOc1ccc(C2c3c(n[nH]c3O)CC(C)(O)C2C(=O)OC)cc1OC` (stereo unspecified)?
A: GI50 (U-251): > 100 µM (inactive); GI50 (Malme-3M): > 100 µM (inactive); GI50 (SF-539): > 100 µM (inactive); GI50 (SNB-19): > 100 µM (inactive); GI50 (MDA-MB-231): > 100 µM (inactive); GI50 (TK-10): > 100 µM (inactive); GI50 (M14): > 100 µM (inactive); GI50 (HL-60): > 100 µM (inactive); GI50 (PC-3): > 100 µM (inactive); GI50 (OVCAR-5): > 100 µM (inactive); GI50 (SR): > 100 µM (inactive); GI50 (NCI-H522): > 100 µM (inactive); GI50 (A549): > 100 µM (inactive); GI50 (Hs-578T): > 100 µM (inactive); GI50 (HCT-116): > 100 µM (inactive); GI50 (OVCAR-8): > 100 µM (inactive); GI50 (CCRF-CEM): > 100 µM (inactive); GI50 (SN12C): > 100 µM (inactive); GI50 (UACC-62): > 100 µM (inactive); GI50 (SW-620): > 100 µM (inactive); GI50 (HT-29): > 100 µM (inactive); GI50 (NCI-H460): > 100 µM (inactive); GI50 (SK-MEL-5): > 100 µM (inactive); GI50 (MDA-MB-435): > 100 µM (inactive); GI50 (OVCAR-3): > 100 µM (inactive); GI50 (SNB-75): > 100 µM (inactive); GI50 (KM12): > 100 µM (inactive); GI50 (786-0): > 100 µM (inactive); GI50 (EKVX): > 100 µM (inactive); GI50 (MOLT-4): > 100 µM (inactive); GI50 (HCC 2998): > 100 µM (inactive); GI50 (T47D): > 100 µM (inactive); GI50 (NCI/ADR-RES): > 100 µM (inactive); GI50 (A498): > 100 µM (inactive); GI50 (ACHN): > 100 µM (inactive); GI50 (DU-145): > 100 µM (inactive); GI50 (COLO 205): > 100 µM (inactive); GI50 (BT-549): > 100 µM (inactive); GI50 (MCF7): > 100 µM (inactive); GI50 (SK-MEL-28): > 100 µM (inactive); GI50 (HOP-62): > 100 µM (inactive); GI50 (SF-268): > 100 µM (inactive); GI50 (HOP-92): > 100 µM (inactive); GI50 (MDA-N): > 100 µM (inactive); GI50 (CAKI-1): > 100 µM (inactive); GI50 (RPMI-8226): > 100 µM (inactive); GI50 (NCI-H23): > 100 µM (inactive); GI50 (UO-31): > 100 µM (inactive); GI50 (SK-MEL-2): > 100 µM (inactive); GI50 (SF-295): > 100 µM (inactive); GI50 (UACC-257): > 100 µM (inactive); GI50 (LOX IMVI): > 100 µM (inactive); GI50 (IGROV-1): > 100 µM (inactive); GI50 (HCT-15): > 100 µM; GI50 (OVCAR-4): > 100 µM (inactive)

Q: What does the source list for `CC(C)(C)[Si](C)(C)O[C@@H](C(=O)OC1C=CCCC1)[C@@H](NC(=O)c1ccccc1)c1ccccc1` (stereo partly specified)?
A: GI50 (U-251): 18.2 µM (inactive); GI50 (Malme-3M): 40.3 µM (inactive); GI50 (SF-539): 61.1 µM (inactive); GI50 (SNB-19): 28.8 µM (inactive); GI50 (MDA-MB-231): 19.1 µM (inactive); GI50 (TK-10): 16.5 µM (inactive); GI50 (PC-3): 9.1 µM (inactive); GI50 (OVCAR-5): 24.4 µM (inactive); GI50 (SR): 15.1 µM (inactive); GI50 (NCI-H522): 16.6 µM (inactive); GI50 (A549): 17.6 µM (inactive); GI50 (Hs-578T): 53.6 µM (inactive); GI50 (HCT-116): 12.6 µM (inactive); GI50 (OVCAR-8): 56.4 µM (inactive); GI50 (CCRF-CEM): 12.1 µM (inactive); GI50 (SN12C): 21 µM (inactive); GI50 (UACC-62): 26.8 µM (inactive); GI50 (SW-620): 26.2 µM (inactive); GI50 (RXF 393): 3.68 µM (inactive); GI50 (HT-29): 14.3 µM (inactive); GI50 (NCI-H460): 19.9 µM (inactive); GI50 (SK-MEL-5): 16.8 µM (inactive); GI50 (MDA-MB-435): 29.3 µM (inactive); GI50 (OVCAR-3): 16.1 µM (inactive); GI50 (SNB-75): 27.7 µM (inactive); GI50 (KM12): 25.6 µM (inactive); GI50 (786-0): 23.8 µM (inactive); GI50 (EKVX): 31.7 µM (inactive); GI50 (MOLT-4): 14.7 µM (inactive); GI50 (HCC 2998): 14.1 µM (inactive); GI50 (T47D): 20 µM (inactive); GI50 (NCI/ADR-RES): 28.6 µM (inactive); GI50 (A498): 35.6 µM (inactive); GI50 (ACHN): 19.1 µM (inactive); GI50 (DU-145): 50.4 µM (inactive); GI50 (COLO 205): 25.3 µM (inactive); GI50 (BT-549): 51.1 µM (inactive); GI50 (MCF7): 14.8 µM (inactive); GI50 (SK-OV-3): 84.1 µM (inactive); GI50 (SK-MEL-28): 34 µM (inactive); GI50 (HOP-62): 18.4 µM (inactive); GI50 (SF-268): 69.5 µM (inactive); GI50 (HOP-92): 8.99 µM (inactive); GI50 (MDA-N): 31 µM (inactive); GI50 (K562): 14 µM (inactive); GI50 (CAKI-1): 48.6 µM (inactive); GI50 (RPMI-8226): 4.79 µM (inactive); GI50 (NCI-H226): 37.8 µM (inactive); GI50 (NCI-H23): 29 µM (inactive); GI50 (UO-31): 27.7 µM (inactive); GI50 (SK-MEL-2): 18 µM (inactive); GI50 (SF-295): 18.9 µM (inactive); GI50 (UACC-257): 19.7 µM (inactive); GI50 (LOX IMVI): 16.7 µM (inactive); GI50 (IGROV-1): 37.3 µM (inactive); GI50 (HCT-15): 20 µM; GI50 (OVCAR-4): 21.5 µM (inactive)

Q: `Cc1ccc(/C=C/C(=O)c2cc(CN(C)C)c(O)c(CN(C)C)c2)cc1` was tested. Which GI50 (U-251) did it give?
A: 21.9 µM (inactive)

Q: What about the GI50 (Malme-3M) of the same molecule?
A: 18.3 µM (inactive)

Q: And the GI50 (SF-539)?
A: 16.6 µM (inactive)

Q: What about the GI50 (MDA-MB-231) of the same molecule?
A: 13.8 µM (inactive)

Q: And the GI50 (TK-10)?
A: 28.8 µM (inactive)

Q: What about the GI50 (M14) of the same molecule?
A: 15.8 µM (inactive)

Q: And the GI50 (HL-60)?
A: 11.7 µM (inactive)

Q: And the GI50 (PC-3)?
A: 13.5 µM (inactive)

Q: And the GI50 (OVCAR-5)?
A: 66.8 µM (inactive)

Q: And the GI50 (SR)?
A: 18.2 µM (inactive)

Q: What about the GI50 (NCI-H522) of the same molecule?
A: 14.8 µM (inactive)

Q: What about the GI50 (A549) of the same molecule?
A: 18.8 µM (inactive)

Q: And the GI50 (Hs-578T)?
A: 29.8 µM (inactive)

Q: And the GI50 (HCT-116)?
A: 15.5 µM (inactive)

Q: What about the GI50 (OVCAR-8) of the same molecule?
A: 21.3 µM (inactive)

Q: And the GI50 (CCRF-CEM)?
A: 14.4 µM (inactive)

Q: What about the GI50 (SN12C) of the same molecule?
A: 14.2 µM (inactive)

Q: What about the GI50 (SW-620) of the same molecule?
A: 16.1 µM (inactive)

Q: And the GI50 (RXF 393)?
A: 18.7 µM (inactive)

Q: What about the GI50 (HT-29) of the same molecule?
A: 13.7 µM (inactive)

Q: And the GI50 (NCI-H460)?
A: 12 µM (inactive)

Q: And the GI50 (SK-MEL-5)?
A: 14.7 µM (inactive)

Q: What about the GI50 (MDA-MB-435) of the same molecule?
A: 21.4 µM (inactive)

Q: What about the GI50 (OVCAR-3) of the same molecule?
A: 14.6 µM (inactive)

Q: What about the GI50 (SNB-75) of the same molecule?
A: 24.4 µM (inactive)

Q: And the GI50 (KM12)?
A: 12.1 µM (inactive)

Q: And the GI50 (786-0)?
A: 27.2 µM (inactive)

Q: And the GI50 (EKVX)?
A: 25.7 µM (inactive)

Q: What about the GI50 (MOLT-4) of the same molecule?
A: 16 µM (inactive)

Q: And the GI50 (HCC 2998)?
A: 18.5 µM (inactive)

Q: What about the GI50 (T47D) of the same molecule?
A: 18 µM (inactive)

Q: And the GI50 (NCI/ADR-RES)?
A: 25.4 µM (inactive)

Q: And the GI50 (A498)?
A: 25.2 µM (inactive)

Q: What about the GI50 (ACHN) of the same molecule?
A: 12.1 µM (inactive)

Q: What about the GI50 (DU-145) of the same molecule?
A: 30.2 µM (inactive)

Q: And the GI50 (COLO 205)?
A: 10.6 µM (inactive)

Q: And the GI50 (BT-549)?
A: 18.3 µM (inactive)

Q: What about the GI50 (MCF7) of the same molecule?
A: 17.3 µM (inactive)

Q: And the GI50 (SK-MEL-28)?
A: 17.6 µM (inactive)

Q: What about the GI50 (HOP-62) of the same molecule?
A: 16.5 µM (inactive)

Q: And the GI50 (SF-268)?
A: 25.9 µM (inactive)

Q: And the GI50 (HOP-92)?
A: 31.9 µM (inactive)

Q: And the GI50 (MDA-N)?
A: 15.2 µM (inactive)

Q: What about the GI50 (K562) of the same molecule?
A: 13.8 µM (inactive)

Q: What about the GI50 (CAKI-1) of the same molecule?
A: 20.7 µM (inactive)

Q: What about the GI50 (RPMI-8226) of the same molecule?
A: 13.2 µM (inactive)

Q: What about the GI50 (NCI-H226) of the same molecule?
A: 22.5 µM (inactive)

Q: And the GI50 (NCI-H23)?
A: 29 µM (inactive)

Q: And the GI50 (UO-31)?
A: 15.7 µM (inactive)

Q: What about the GI50 (SF-295) of the same molecule?
A: 13.8 µM (inactive)

Q: And the GI50 (UACC-257)?
A: 13.8 µM (inactive)

Q: What about the GI50 (LOX IMVI) of the same molecule?
A: 6.65 µM (inactive)

Q: What about the GI50 (IGROV-1) of the same molecule?
A: 27.4 µM (inactive)

Q: What about the GI50 (HCT-15) of the same molecule?
A: 14.4 µM
